Assay results from the Deep4Chem optical property database.
Each block holds one compound with its values, some of them ahead of it.

Assay: solvent given as SMILES

SMILES: CCC1=C(C)C2=Cc3c4ccccc4c4n3[B-](c3ccc5ccc6cccc7ccc3c5c67)(Oc3ccccc3-4)[N+]2=C1C (configuration not stated)
emission maximum (in CC#N): 635 nm
emission maximum (in CCCCCC): 638 nm
emission maximum (in Cc1ccccc1): 642 nm
emission maximum (in ClCCl): 640 nm

emission maximum (in ClCCl): 448 nm
SMILES: COc1ccc(C2=Cc3cc4ccccc4cc3P2(=O)c2ccccc2)cc1 (configuration not stated)

SMILES: c1ccc2c(c1)c1ccccc1n2-c1ccc2cc(-c3ccc(-c4ccc(-c5cc6ccc(-n7c8ccccc8c8ccccc87)cc6o5)cc4)cc3)oc2c1
emission maximum (in Cc1ccccc1): 419 nm
emission maximum (in c1ccc2c(c1)c1ccccc1n2-c1ccc(-c2ccc(-n3c4ccccc4c4ccccc43)cc2)cc1): 441 nm

emission maximum (in ClCCl): 360 nm
SMILES: Cc1cc2ccccc2c2[nH]c3ccccc3c12

emission maximum (in ClCCl): 434 nm
SMILES: CCCCC(CC)COc1ccc2nc(-c3ccc(-c4ccc(OC)cc4)s3)sc2c1 (configuration not stated)

emission maximum (in C1CCOC1): 516 nm
SMILES: C[Si](C)(C)c1ccc(-c2ccc(-c3ccc(-c4ccc(-c5ccc([Si](C)(C)C)cc5)cc4)c4nsnc34)cc2)cc1

emission maximum (in CC#N): 433 nm
SMILES: N#Cc1ccc(-c2pc3ccccc3s2)cc1 (configuration not stated)

emission maximum (in CS(C)=O): 523.5 nm
SMILES: Clc1ccc(-c2nc3ccccc3c3cc4ccccn4c23)s1

emission maximum (in ClC(Cl)Cl): 634 nm
SMILES: N#CC(C#N)=Cc1ccc(-c2ccc(N(c3ccccc3)c3ccccc3)cc2)cc1

SMILES: Cc1c2ccncc2c(C)c2c1[nH]c1ccccc12
emission maximum (in C1CCCCC1): 392 nm
emission maximum (in C1CCOC1): 413 nm
emission maximum (in C1COCCO1): 410 nm
emission maximum (in CC#N): 420 nm
emission maximum (in CC(C)(C)O): 420 nm
emission maximum (in CC(C)O): 424 nm
emission maximum (in CCC(C)(C)O): 419 nm
emission maximum (in CCCCCC): 390 nm
emission maximum (in CCCCO): 427 nm
emission maximum (in CCO): 429 nm
emission maximum (in CCOC(C)=O): 410 nm
emission maximum (in CCOCC): 405 nm
emission maximum (in CN(C)C=O): 425 nm
emission maximum (in CO): 434 nm
emission maximum (in CS(C)=O): 428 nm
emission maximum (in Cc1ccccc1): 403 nm

emission maximum (in CCO): 462 nm
emission maximum (in ClCCl): 460 nm
SMILES: CCN(CC)c1ccc2cc(C#N)/c(=N\C(C)=O)oc2c1

emission maximum (in ClCCl): 421 nm
SMILES: c1ccc(C2(c3ccccc3)c3ccc4ccc5ccccc5c4c3-c3c2ccc2ccc4ccccc4c32)cc1

emission maximum (in CCCCCC): 380 nm
emission maximum (in CO): 381 nm
emission maximum (in ClCCl): 382 nm
SMILES: Cc1ccc2ccc3c(C)ccc4ccc1c2c43

emission maximum (in ClC(Cl)Cl): 624 nm
SMILES: Cc1cc(C)c(C2=C3C=CC(c4ccc5c(ccc6ccccc65)c4)=[N+]3[B-](F)(F)n3c2ccc3-c2ccc3c(ccc4ccccc43)c2)c(C)c1

emission maximum (in CCCCCC): 444 nm
SMILES: CC(C)[Si](C#Cc1ccc(C#C[Si](C(C)C)(C(C)C)C(C)C)c2nc3c(ccc4ccccc43)nc12)(C(C)C)C(C)C

SMILES: c1ccc(-c2nc(-c3ccccc3)nc(-c3ccc(-n4c5ccccc5c5ccc6c7ccccc7n(-c7ccccc7)c6c54)cc3)n2)cc1
emission maximum (in Cc1ccccc1): 459 nm
emission maximum (in O=P(c1ccccc1)(c1ccccc1)c1ccc2oc3ccc(P(=O)(c4ccccc4)c4ccccc4)cc3c2c1): 477 nm

SMILES: Cc1ccccc1C
emission maximum (in C1CCCCC1): 291.38 nm

emission maximum (in ClCCl): 456 nm
SMILES: c1ccc([B-]23NC(C4CCCCC4)=Nc4cccc([n+]42)N=C(C2CCCCC2)N3)cc1

emission maximum (in C1CCCCC1): 413.89 nm
emission maximum (in CC#N): 490.48 nm
emission maximum (in CCOC(C)=O): 468.65 nm
SMILES: COc1c(-c2ccc(N(C)C)cc2)oc2ccccc2c1=O

emission maximum (in ClC(Cl)Cl): 411 nm
SMILES: CC(=O)OCCN1C(=O)c2cccc3c(Oc4ccc(C=O)cc4)ccc(c23)C1=O

SMILES: CC(=O)Nc1ccc(/C=C2\OC(=O)c3cc(N)ccc32)cc1
emission maximum (in CC#N): 455.79 nm
emission maximum (in CC(C)=O): 453.31 nm
emission maximum (in CC(C)CO): 482.86 nm
emission maximum (in CC(C)O): 483.09 nm
emission maximum (in CCCO): 484.26 nm
emission maximum (in CCO): 485.91 nm
emission maximum (in CCOC(C)=O): 443.66 nm
emission maximum (in CCOCC): 429.92 nm
emission maximum (in CO): 490.2 nm

SMILES: COc1ccc(-c2nnc(-c3cc(-n4c5ccccc5c5ccccc54)c(-n4c5ccccc5c5ccccc54)cc3-c3nnc(-c4ccc(OC)cc4)o3)o2)cc1
emission maximum (in CC#N): 515.81 nm
emission maximum (in Cc1ccccc1): 459 nm
emission maximum (in ClCCl): 487.92 nm

emission maximum (in C1COCCO1): 494 nm
SMILES: N#Cc1ccc(/C=C2\C=C(c3ccccc3)OC2=O)cc1

emission maximum (in CCO): 420 nm
SMILES: Cc1cc(=O)oc2ccc3ccc(-c4cn(Cc5ccccc5)nn4)cc3c12

emission maximum (in ClC(Cl)Cl): 510 nm
SMILES: COc1ccc(-c2oc3cccc4c5c(-c6ccc(OC)c(OC)c6)c(=N)oc6cccc(c2c34)c65)cc1OC

SMILES: CN(C)c1ccc(/C=C/c2ccnc(/C=C/c3ccc(N(C)C)cc3)n2)cc1
emission maximum (in C1CCOC1): 484 nm
emission maximum (in CC#N): 513 nm
emission maximum (in CC(C)=O): 523 nm
emission maximum (in CCCCCCC): 433 nm
emission maximum (in CS(C)=O): 527 nm
emission maximum (in Cc1ccccc1): 455 nm
emission maximum (in ClCCl): 493 nm

SMILES: Cc1ccc(N(c2ccc(C)cc2)c2c3ccccc3c(N(c3ccc(C)cc3)c3ccc(C)cc3)c3ccccc23)cc1
emission maximum (in Cc1ccccc1): 533 nm

emission maximum (in C1CCOC1): 516 nm
SMILES: FC(F)(F)c1ccc(/C=C2\C=C(c3ccccc3)C=C2c2ccccc2)cc1

SMILES: O=C(O)CCCc1cc(C#Cc2ccccc2)c2ccc3c(C#Cc4ccccc4)cc(C#Cc4ccccc4)c4ccc1c2c34
emission maximum (in CS(C)=O): 461 nm
emission maximum (in ClC(Cl)(Cl)Cl): 460 nm

emission maximum (in C1CCOC1): 419 nm
emission maximum (in CN(C)C=O): 423 nm
SMILES: O=C(O)c1ccc2cc3cc(C(=O)O)ccc3cc2c1

emission maximum (in ClC(Cl)Cl): 491 nm
SMILES: Cc1cc(C2=Cc3cccc[n+]3[B-](F)(F)O2)ccc1N(C)C

SMILES: N#Cc1ccc(N2c3ccccc3C(c3ccccc3)(c3ccccc3)c3ccccc32)cc1
emission maximum (in Cc1ccccc1): 428 nm

SMILES: COC1(OC)C2(Cl)c3nc4cc(-c5cccs5)ccc4nc3C1(Cl)C1C[C@H]3[C@@H](CC12)C1(Cl)c2nc4ccc(-c5cccs5)cc4nc2C3(Cl)C1(OC)OC (some centres not stated)
emission maximum (in CC#N): 461 nm
emission maximum (in CCCCCC): 412 nm
emission maximum (in CCOC(C)=O): 439 nm
emission maximum (in CO): 491 nm
emission maximum (in Cc1ccccc1): 427 nm
emission maximum (in ClC(Cl)Cl): 441 nm
emission maximum (in ClCCl): 445 nm

emission maximum (in CC#N): 619 nm
emission maximum (in CCCCCC): 583 nm
emission maximum (in CO): 636 nm
SMILES: COc1ccc2c(c1)N(c1ccccc1-c1ccccc1)c1cc3c(cc1=N2)Oc1c(cc(C(C)(C)C)cc1C(C)(C)C)N=3

emission maximum (in CC(C)(C)O): 478 nm
emission maximum (in CC(C)CO): 479 nm
emission maximum (in CC(C)O): 481 nm
emission maximum (in CCCCO): 472 nm
emission maximum (in CCCO): 471 nm
emission maximum (in CCO): 465 nm
emission maximum (in CN(C)C=O): 464 nm
emission maximum (in CNC=O): 450 nm
emission maximum (in CO): 467 nm
emission maximum (in NC=O): 458 nm
emission maximum (in O): 495 nm
SMILES: COCCOCCOCCOc1cc(C=O)c(OCCOCCOCCOC)cc1C=O

emission maximum (in C1CCOC1): 405 nm
SMILES: CCCCC1(CCCC)c2cc(C#Cc3ccc(C=C4c5ccccc5C=Cc5ccccc54)cc3)ccc2-c2ccc(C#Cc3ccc(C=C4c5ccccc5C=Cc5ccccc54)cc3)cc21

emission maximum (in ClCCl): 445 nm
SMILES: CCN(CC)c1ccc2c(c1)oc(=O)c1cnc3c(c(C)nn3-c3ccccc3)c12

emission maximum (in ClCCl): 420 nm
SMILES: COc1ccc(-c2cnc(-c3cccnc3)o2)cc1OC

SMILES: Cc1cc(C)c(B(c2cc3ccc4cccc5ccc(c2)c3c45)c2c(C)cc(C)cc2C)c(C)c1
emission maximum (in Cc1ccccc1): 434 nm

emission maximum (in C1CCOC1): 351.7 nm
emission maximum (in CC#N): 352.7 nm
emission maximum (in CC(C)O): 351.3 nm
emission maximum (in CCCCO): 351.4 nm
emission maximum (in CCO): 352.3 nm
emission maximum (in CO): 352.2 nm
emission maximum (in ClCCl): 353.1 nm
emission maximum (in O): 355.5 nm
SMILES: COc1ccc2cc([C@H](C)C(=O)O)ccc2c1

emission maximum (in ClCCl): 566 nm
emission maximum (in OCC(F)(F)F): 555 nm
SMILES: FC(F)(F)C(F)(F)C(F)(F)C(F)(F)C(F)(F)C(F)(F)CCOc1nnc(Cl)nn1

emission maximum (in ClCCl): 402 nm
SMILES: COC(=O)c1c(-c2cc3ccccc3oc2=O)nn(-c2cccc(F)c2)c1C(=O)OC

emission maximum (in C1COCCO1): 580 nm
emission maximum (in CC(C)O): 607 nm
emission maximum (in CCCCCCCCO): 595 nm
emission maximum (in CCCCO): 608 nm
emission maximum (in CCCO): 611 nm
emission maximum (in CCO): 613 nm
emission maximum (in CO): 618 nm
emission maximum (in CS(C)=O): 627 nm
emission maximum (in ClC(Cl)Cl): 580 nm
emission maximum (in ClCCl): 600 nm
SMILES: CN(C)c1ccc(/C=C/c2cc[n+](Cc3cc(C[n+]4ccc(/C=C/c5ccc(N(C)C)cc5)cc4)cc(C[n+]4ccc(/C=C/c5ccc(N(C)C)cc5)cc4)c3)cc2)cc1

emission maximum (in ClC(Cl)Cl): 465 nm
SMILES: CCCCCCN1C(=O)c2cccc3c(-c4cccs4)ccc(c23)C1=O

emission maximum (in ClC(Cl)Cl): 610 nm
SMILES: CCCCN1C(=O)c2cc(Oc3ccc(C(C)(C)C)cc3)c3c4c(Oc5ccc(C(C)(C)C)cc5)c(Oc5ccc(C(C)(C)C)cc5)c5c6c(cc(Oc7ccc(C(C)(C)C)cc7)c(c7c(Oc8ccc(C(C)(C)C)cc8)c(Oc8ccc(C(C)(C)C)cc8)c(c2c37)C1=O)c64)C(=O)N(CCCC)C5=O

emission maximum (in C1CCCCC1): 329 nm
SMILES: CCCC[Si](C)(C)c1cccc2ccccc12

emission maximum (in C1CCCCC1): 490 nm
emission maximum (in CC#N): 514 nm
emission maximum (in CCO): 552 nm
SMILES: COc1ccc2c(c1)-c1cc(OC)ccc1C2=O

emission maximum (in CC#N): 476 nm
emission maximum (in CCCCCC): 403 nm
SMILES: C(=C\c1cccnc1)/c1ccc(N(c2ccccc2)c2ccccc2)cc1

SMILES: CN(C)c1ccc(-c2nc3c(c4c2-c2ccc(C#N)cc2CC4)-c2ccc(C#N)cc2CC3)cc1
emission maximum (in C1CCOC1): 500 nm
emission maximum (in CC#N): 505 nm
emission maximum (in CCCCCC): 444 nm
emission maximum (in CCOC(C)=O): 489 nm
emission maximum (in CO): 489 nm
emission maximum (in CS(C)=O): 516 nm
emission maximum (in Cc1ccccc1): 469 nm
emission maximum (in ClCCl): 482 nm

emission maximum (in CC(=O)N(C)C): 717 nm
SMILES: CC(C)(C)c1cc(/C2=C3\C=CC(=N3)/C(c3ccc([N+](=O)[O-])cc3)=c3/cc/c([nH]3)=C(\c3ccc([N+](=O)[O-])cc3)C3=N/C(=C(/c4cc(C(C)(C)C)cc(C(C)(C)C)c4)c4cc2c[nH]4)C=C3)cc(C(C)(C)C)c1

emission maximum (in ClCCl): 602 nm
SMILES: CCOC(=O)/C=C/C1=[N+]2C(=C(c3c(C)cc(C)cc3C)c3ccc(/C=C/C(=O)OCC)n3[B-]2(F)F)C=C1

emission maximum (in C1CCOC1): 585 nm
emission maximum (in CC#N): 656 nm
emission maximum (in CCCCCC): 506 nm
SMILES: CC1=N/C(=C\c2cccc(N(C)C)c2)C(=O)N1CCO
